Results on two compounds are retold here after ChEMBL document CHEMBL6114969, “Ultra-short lipopeptides containing d-amino acid exhibiting excellent stability and antibacterial activity against gram-positive bacteria” (Eur J Med Chem, 2025).

Converted amounts (≈) assume the structure as drawn. Where a SMILES comes first, the peptide text is derived from it. Bridges are numbered along the chain shown (N, C = ends). [ ]: non-standard residue; d: D form. The star is where a group is joined. X1 = CC[C@H](C)CCCCC(=O)*; Dab = NCC[C@H](N)C(=O)O Some results are limits rather than exact numbers.

Data set [1] relates to Staphylococcus epidermidis. As to the kind of experiment: Antibacterial activity against Staphylococcus epidermidis ATCC 12228 incubated for 18 to 24 hrs by broth microdilution method. In kind it is functional. The settings on record: time 18-24 hrs. Background: Dilution methods test growth across graded concentrations, often in twofold steps.
For data set [2], the system named is Staphylococcus aureus. As to the kind of experiment: Antibacterial activity against drug-resistant methicillin-resistant Staphylococcus aureus ATCC 33591 incubated for 18 to 24 hrs. In kind it is functional. The note with it: time 18-24 hrs.
In data set [3] the test system is Staphylococcus aureus. Put plainly: Antibacterial activity against ciprofloxacin-resistant Staphylococcus aureus ATCC 25923 incubated for 18 to 24 hrs. It counts as functional. The settings on record: time 18-24 hrs.
The test system of a further data set is Enterococcus faecalis. As to the kind of experiment: Antibacterial activity against Enterococcus faecalis ATCC 29212 incubated for 18 to 24 hrs by broth microdilution method. In kind it is functional. The settings on record: time 18-24 hrs.
Data set [4] has as its system Staphylococcus aureus. As to the kind of experiment: Antibacterial activity against gentamicin-resistant Staphylococcus aureus ATCC 25923 incubated for 18 to 24 hrs. In kind it is functional. The note with it: time 18-24 hrs.
Data set [5] concerns Staphylococcus aureus. Put plainly: Antibacterial activity against drug-resistant Staphylococcus aureus ATCC 25923 incubated for 18 to 24 hrs. It counts as functional. The settings on record: time 18-24 hrs.
Data set [6] has as its system Staphylococcus aureus. Put plainly: Antibacterial activity against methicillin-resistant Staphylococcus aureus ATCC 33591 incubated for 18 to 24 hrs by broth microdilution method. It counts as functional. The note with it: time 18-24 hrs.
In data set [7] the test system is Staphylococcus aureus. As to the kind of experiment: Antibacterial activity against polymyxin B-resistant methicillin-resistant Staphylococcus aureus ATCC 33591 incubated for 18 to 24 hrs. In kind it is functional. The settings on record: time 18-24 hrs.
For data set [8], the system named is Staphylococcus aureus. Put plainly: Antibacterial activity against polymyxin B-resistant Staphylococcus aureus ATCC 25923 incubated for 18 to 24 hrs. The note with it: time 18-24 hrs. It counts as functional.
The test system of data set [9] is Staphylococcus aureus. Put plainly: Antibacterial activity against methicillin-resistant Staphylococcus aureus ATCC 33591 infected in Balb/c mouse model of skin wound infection assessed as wound heal at 10 mg/kg, ip administered thrice at 1, 24 and 48 hrs post-infection measured after 14 days relative to control. It counts as functional. The note with it: time 14 day.

The test system of data set [10] is Staphylococcus aureus. As to the kind of experiment: Antibacterial activity against methicillin-resistant Staphylococcus aureus ATCC 33591 infected in Balb/c mouse model of skin wound infection assessed as crusted back wound at 10 mg/kg, ip administered thrice at 1, 24 and 48 hrs post-infection measured after 9 days relative to control. It counts as functional. The settings on record: time 9 day.

The subject of data set [11] is Staphylococcus aureus. Put plainly: Antibacterial activity against ciprofloxacin-resistant methicillin-resistant Staphylococcus aureus ATCC 33591 incubated for 18 to 24 hrs. It counts as functional. The settings on record: time 18-24 hrs.
In data set [12] the test system is Staphylococcus aureus. As to the kind of experiment: Antibacterial activity against Staphylococcus aureus ATCC 25923 incubated for 18 to 24 hrs by broth microdilution method. The settings on record: time 18-24 hrs. It counts as functional.
The test system of data set [13] is Staphylococcus aureus. As to the kind of experiment: Antibacterial activity against Staphylococcus aureus ATCC 29213 incubated for 18 to 24 hrs by broth microdilution method. The settings on record: time 18-24 hrs. In kind it is functional.
Data set [14] relates to Staphylococcus aureus. As to the kind of experiment: Antibacterial activity against gentamicin-resistant methicillin-resistant Staphylococcus aureus ATCC 33591 incubated for 18 to 24 hrs. In kind it is functional. The settings on record: time 18-24 hrs.
Data set [15] has as its system Staphylococcus aureus. As to the kind of experiment: Antibacterial activity against methicillin-resistant Staphylococcus aureus ATCC 33591 assessed as fold change in MIC incubated for 18 to 24 hrs in presence of 10 percent mouse serum by broth microdilution method. In kind it is functional. The settings on record: time 18-24 hrs.
The test system of data set [16] is Staphylococcus aureus. Put plainly: Antibacterial activity against methicillin-resistant Staphylococcus aureus ATCC 33591 incubated for 18 to 24 hrs in presence of 2 mg/ml of pepsin by broth microdilution method. The note with it: time 18-24 hrs. It counts as functional.
Data set [17] relates to Staphylococcus aureus. As to the kind of experiment: Antibacterial activity against methicillin-resistant Staphylococcus aureus ATCC 33591 assessed as fold change in MIC incubated for 18 to 24 hrs in presence of MgCl2 by broth microdilution method. It counts as functional. The settings on record: time 18-24 hrs.
Data set [18] can be described thus: Hemolytic activity in mouse Red blood cells incubated for 1 hr by absorbance based analysis. It counts as toxicity, cell-based. The note with it: erythrocyte.
In data set [19] the test system is Staphylococcus aureus. As to the kind of experiment: Antibacterial activity against methicillin-resistant Staphylococcus aureus ATCC 33591 incubated for 18 to 24 hrs in presence of 0.5 mg/ml of trypsin by broth microdilution method. It counts as functional. The note with it: time 18-24 hrs.
Data set [20] has as its system Staphylococcus aureus. As to the kind of experiment: Antibacterial activity against methicillin-resistant Staphylococcus aureus ATCC 33591 incubated for 18 to 24 hrs in presence of 0.5 mg/ml of pepsin by broth microdilution method. It counts as functional. The settings on record: time 18-24 hrs.
Data set [21] in a line: Retention time of compound by RP-HPLC analysis. In kind it is physicochemical.
Data set [22] relates to Staphylococcus aureus. As to the kind of experiment: Antibacterial activity against methicillin-resistant Staphylococcus aureus ATCC 33591 incubated for 18 to 24 hrs in presence of 1 mg/ml of pepsin by broth microdilution method. It counts as functional. The note with it: time 18-24 hrs.
Data set [23] is described as follows: Stability in mouse serum assessed as half life measured upto 96 hrs by RP-HPLC analysis. In kind it is ADME, cell-free.
The test system of data set [24] is Staphylococcus aureus. Put plainly: Antibacterial activity against methicillin-resistant Staphylococcus aureus ATCC 33591 incubated for 18 to 24 hrs in presence of 1 mg/ml of chymotrypsin by broth microdilution method. In kind it is functional. The note with it: time 18-24 hrs.
In data set [25] the test system is Staphylococcus aureus. As to the kind of experiment: Antibacterial activity against methicillin-resistant Staphylococcus aureus ATCC 33591 incubated for 18 to 24 hrs in presence of 2 mg/ml of chymotrypsin by broth microdilution method. It counts as functional. The note with it: time 18-24 hrs.
The subject of data set [26] is Staphylococcus aureus. Put plainly: Antibacterial activity against methicillin-resistant Staphylococcus aureus ATCC 33591 assessed as fold change in MIC incubated for 18 to 24 hrs in presence of NaCl by broth microdilution method. In kind it is functional. The settings on record: time 18-24 hrs.
Data set [27] can be described thus: Stability in mouse serum assessed as compound degradation measured upto 96 hrs by RP-HPLC analysis. It counts as ADME, cell-free. The note with it: read-out: Drug degradation.
In data set [28] the test system is Staphylococcus aureus. As to the kind of experiment: Antibacterial activity against methicillin-resistant Staphylococcus aureus ATCC 33591 incubated for 18 to 24 hrs in presence of 0.5 mg/ml of chymotrypsin by broth microdilution method. In kind it is functional. The note with it: time 18-24 hrs.
Data set [29] has as its system Staphylococcus aureus. Put plainly: Antibacterial activity against methicillin-resistant Staphylococcus aureus ATCC 33591 incubated for 18 to 24 hrs in presence of 1 mg/ml of trypsin by broth microdilution method. In kind it is functional. The note with it: time 18-24 hrs.
Data set [30] has as its system Staphylococcus aureus. Put plainly: Antibacterial activity against methicillin-resistant Staphylococcus aureus ATCC 33591 assessed as fold change in MIC incubated for 18 to 24 hrs in presence of 10 percent FBS by broth microdilution method. The note with it: time 18-24 hrs. It counts as functional.
For data set [31], the system named is Staphylococcus aureus. Put plainly: Antibacterial activity against methicillin-resistant Staphylococcus aureus ATCC 33591 incubated for 18 to 24 hrs in presence of 2 mg/ml of trypsin by broth microdilution method. In kind it is functional. The settings on record: time 18-24 hrs.

As a reminder, the MIC is the least concentration at which growth counts as inhibited. In the case of `CC(C)CCCCC(=O)N[C@@H](CCN)C(=O)N[C@H](C(=O)N[C@@H](CCN)C(=O)N[C@H]1CCNC(=O)[C@H]([C@@H](C)O)NC(=O)[C@H](CCN)NC(=O)[C@H](CCN)NC(=O)[C@H](CC(C)C)NC(=O)[C@@H](Cc2ccccc2)NC(=O)[C@H](CCN)NC1=O)[C@@H](C)O.CC[C@H](C)CCCCC(=O)N[C@@H](CCN)C(=O)N[C@H](C(=O)N[C@@H](CCN)C(=O)N[C@H]1CCNC(=O)[C@H]([C@@H](C)O)NC(=O)[C@H](CCN)NC(=O)[C@H](CCN)NC(=O)[C@H](CC(C)C)NC(=O)[C@@H](Cc2ccccc2)NC(=O)[C@H](CCN)NC1=O)[C@@H](C)O` (X1-[Dab]T[Dab][Dab][Dab][dF]L[Dab][Dab]T; lactam 4-C), the minimal inhibitory concentration (MIC) is 2 µM in [1]; 128 µM with Staphylococcus aureus [2]; 128 µM against Staphylococcus aureus [3]; 128 µM against Enterococcus faecalis; more than 128 µM against Staphylococcus aureus [4]; more than 128 µM in the data set with Staphylococcus aureus [5]. For the same compound, the MIC in the data set with Staphylococcus aureus [6] is 16 µM; in the data set with Staphylococcus aureus [7], 2050 µM; against Staphylococcus aureus [8], 512 µM; against Staphylococcus aureus [11], 4 µM; against Staphylococcus aureus [12], 4 µM; in the data set on Staphylococcus aureus [13] it was 4 µM. In the data set on Staphylococcus aureus [14], this compound registered an MIC of 128 µM. Moreover, the Activity in the data set with Staphylococcus aureus [9] and in the data set with Staphylococcus aureus [10] was 100% throughout.
The half-life is how long it takes for the measured level to halve. Turning to `CCCCCCCCCCCC(=O)N[C@@H](CCCNC(=N)N)C(=O)N[C@@H](CCCNC(=N)N)C(=O)N[C@@H](Cc1c[nH]c2ccccc12)C(=O)O`, the MIC is 2 µM (≈ 1.4 µg/mL) in data set [1]; 64 µM in the data set on Staphylococcus aureus [16]; 8 µM (≈ 5.59 µg/mL) in the data set on Enterococcus faecalis; more than 128 µM in the data set on Staphylococcus aureus [19]; 16 µM with Staphylococcus aureus [20]; 32 µM in the data set with Staphylococcus aureus [22]. The MIC is 4 µM (≈ 2.8 µg/mL) against Staphylococcus aureus [6]; more than 128 µM in the data set with Staphylococcus aureus [24]; more than 128 µM with Staphylococcus aureus [25]; more than 128 µM with Staphylococcus aureus [28]; more than 128 µM with Staphylococcus aureus [29]; more than 128 µM with Staphylococcus aureus [31]. For the same compound, the MIC in the data set on Staphylococcus aureus [12] and with Staphylococcus aureus [13] was 4 µM (≈ 2.8 µg/mL) in each case. Moreover, the “fold change (FC)” value in the data set with Staphylococcus aureus [15] is on record as 4; in the data set with Staphylococcus aureus [17], less than 3; in the data set with Staphylococcus aureus [26], less than 3; in the data set on Staphylococcus aureus [30] it was 8. In [18], this compound yielded an HC10 of 128 µM. In data set [21], this compound returned a Retention_time of 18.643 min. Moreover, in [23], the half-life was 17.4 h. Besides, the metabolised at 96 h in data set [27] was approximately 100%.
